Usually IC50 stands for the concentration needed to halve the response being measured. Lower therefore signals inhibition by little substance. The term EC50 denotes the concentration giving half of the maximal effect.

Assay [1] has as its target T1, NS3-NS4 (Hepatitis C virus genotype 1a, UniProt P27958). The assay can be described thus: NS3-NS4 activity, IC50 (Example 37, Table 8). Format: biochemical.
In assay [2] the target is T1, NS3-NS4. The assay can be described thus: cell-based. As to conditions: EC50, NS3-NS4 activity.

T1 sequence (P27958 1027-1657): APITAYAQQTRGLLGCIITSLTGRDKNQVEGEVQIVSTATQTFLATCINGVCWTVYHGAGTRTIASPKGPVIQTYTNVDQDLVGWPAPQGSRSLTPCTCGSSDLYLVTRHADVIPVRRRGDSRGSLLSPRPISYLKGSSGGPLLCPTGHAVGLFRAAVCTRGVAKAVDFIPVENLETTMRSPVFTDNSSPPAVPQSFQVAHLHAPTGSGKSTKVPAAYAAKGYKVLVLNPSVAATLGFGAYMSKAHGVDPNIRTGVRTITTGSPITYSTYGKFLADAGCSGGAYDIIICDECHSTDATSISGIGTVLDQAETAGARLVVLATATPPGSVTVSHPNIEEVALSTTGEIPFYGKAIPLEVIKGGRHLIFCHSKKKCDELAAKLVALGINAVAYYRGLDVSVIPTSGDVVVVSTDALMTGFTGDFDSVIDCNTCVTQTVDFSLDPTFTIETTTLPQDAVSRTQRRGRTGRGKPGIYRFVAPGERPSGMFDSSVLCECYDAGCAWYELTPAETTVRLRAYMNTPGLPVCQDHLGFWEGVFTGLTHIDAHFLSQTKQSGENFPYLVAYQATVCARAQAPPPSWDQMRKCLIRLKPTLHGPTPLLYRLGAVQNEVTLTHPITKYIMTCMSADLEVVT
T1 sequence (P27958 1658-1711): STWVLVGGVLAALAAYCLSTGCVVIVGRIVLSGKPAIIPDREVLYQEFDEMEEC

Take `Cc1cc(C)cc(ONC(=O)[C@@]23C[C@H]2/C=C\CCCCC[C@H](NC(=O)OC(C)(C)C)C(=O)N2C[C@H](OC(=O)N4Cc5cccc(F)c5C4)C[C@H]2C(=O)N3)c1` [Compound 715]: the IC50 in assay [1] was less than 0.1 µM. Further, in assay [2], the EC50 was 1 to 10 µM.
The compound `CC(C)(C)OC(=O)N[C@H]1CCCCC/C=C\[C@@H]2C[C@@]2(C(=O)NOCC2CC2)NC(=O)[C@@H]2C[C@@H](OC(=O)N3Cc4cccc(F)c4C3)CN2C1=O` [Compound 102, (2R,6S,13aS,14aR,16aS,Z)-6-(tert-butoxycarbonylamino)-14a-(cyclopropylmethoxycarbamoyl)-5,16-dioxo-1,2,3,5,6,7,8,9,10,11,13a,14,14a,15,16,16a-hexadecahydrocyclopropa[e]pyrrolo[1,2-a][1,4]diazacyclopentadecin-2-yl 4-fluoroisoindoline-2-carboxylate] yielded an EC50 in assay [2] of less than 0.1 µM.
Compound `O=C(N[C@H]1CCCCC/C=C\[C@@H]2C[C@@]2(C(=O)NS(=O)(=O)C2CC2)NC(=O)[C@@H]2C[C@@H](OC(=O)N3Cc4cccc(Cl)c4C3)CN2C1=O)OC1CCC1` [Compound 433] yielded an IC50 in assay [1] of less than 0.1 µM. Also, the EC50 in assay [2] was less than 0.1 µM.
In the case of `CC(C)(C)OC(=O)N[C@H]1CCCCC[C@H]2C[C@H]2[C@@H]2C[C@@]2(C(=O)NS(=O)(=O)C2CC2)NC(=O)[C@@H]2C[C@@H](OC(=O)N3Cc4cccc(F)c4C3)CN2C1=O` [Compound 904], the 50% inhibitory concentration (IC50) in assay [1] was less than 0.1 µM. Also, the EC50 in assay [2] was less than 0.1 µM.
As for `O=C1N[C@]2(C(=O)NS(=O)(=O)C3CC3)C[C@H]2/C=C\CCCCC[C@H](Nc2nc(-c3ccc(F)cc3)cs2)C(=O)N2C[C@H](OC(=O)N3CCc4ccccc4C3)C[C@@H]12` [Compound 232], in assay [1], the IC50 is less than 0.1 µM. In assay [2], this compound displayed an EC50 of less than 0.1 µM.
In turn, `CC(C)(C)OC(=O)N[C@H]1CCCCC/C=C\[C@@H]2C[C@@]2(C(=O)NS(=O)(=O)c2c(F)cccc2F)NC(=O)[C@@H]2C[C@@H](OC(=O)N3Cc4cccc(F)c4C3)CN2C1=O` [Compound 306] returned an IC50 in assay [1] of less than 0.1 µM. For the same compound, in assay [2], the EC50 was in the range of 0.1 to 1 µM.
Taken in the same sequence, the figures for `CC(C)(C)OC(=O)N[C@H]1CCCCC/C=C\[C@@H]2C[C@@]2(C(=O)NS(=O)(=O)Cc2cccc(C(F)(F)F)c2)NC(=O)[C@@H]2C[C@@H](OC(=O)N3Cc4cccc(F)c4C3)CN2C1=O` [Compound 518] were less than 0.1 µM and 0.1 to 1 µM.
As to `COc1csc(S(=O)(=O)NC(=O)[C@@]23C[C@H]2/C=C\CCCCC[C@H](NC(=O)OC(C)(C)C)C(=O)N2C[C@H](OC(=O)N4Cc5cccc(F)c5C4)C[C@H]2C(=O)N3)c1` [Compound 541], the IC50 in assay [1] was less than 0.1 µM. In assay [2], this compound registered a concentration for a half-maximal effect (EC50) of less than 0.1 µM.
As for `Cc1cccc(ONC(=O)[C@@]23C[C@H]2/C=C\CCCCC[C@H](NC(=O)OC(C)(C)C)C(=O)N2C[C@H](OC(=O)N4Cc5cccc(F)c5C4)C[C@H]2C(=O)N3)c1` [Compound 702], the half-inhibitory concentration (IC50) in assay [1] is less than 0.1 µM. For the same compound, the half-maximal effective concentration (EC50) in assay [2] lay in the range of 1 to 10 µM.
For `CC(C)(C)OC(=O)N[C@H]1CCCCC/C=C\[C@@H]2C[C@@]2(C(=O)NS(=O)(=O)c2ccccc2)NC(=O)[C@@H]2C[C@@H](OC(=O)N3Cc4cccc(F)c4C3)CN2C1=O` [Compound 501], in that order: less than 0.1 µM and less than 0.1 µM.
Taken in the same sequence, the figures for `CC(C)(C)OC(=O)N[C@H]1CCCCC/C=C\[C@@H]2C[C@@]2(C(=O)NS(=O)(=O)Cc2cccc(F)c2)NC(=O)[C@@H]2C[C@@H](OC(=O)N3Cc4cccc(F)c4C3)CN2C1=O` [Compound 508] were less than 0.1 µM and 0.1 to 1 µM.
For `Cc1ccccc1S(=O)(=O)NC(=O)[C@@]12C[C@H]1/C=C\CCCCC[C@H](NC(=O)OC1CCC1)C(=O)N1C[C@H](OC(=O)N3Cc4cccc(F)c4C3)C[C@H]1C(=O)N2` [Compound 338], in that order: less than 0.1 µM and less than 0.1 µM.
`O=C1N[C@]2(C(=O)NS(=O)(=O)C3CC3)C[C@H]2/C=C\CCCCC[C@H](NC(=O)N2CCC2)C(=O)N2C[C@H](OC(=O)N3Cc4cccc(F)c4C3)C[C@@H]12` [Compound 417] gave an IC50 in assay [1] of less than 0.1 µM. The compound further yielded an EC50 in assay [2] of less than 0.1 µM.
Take `CONC(=O)[C@@]12C[C@H]1/C=C\CCCCC[C@H](NC(=O)OC(C)(C)C)C(=O)N1C[C@H](OC(=O)N3Cc4cccc(F)c4C3)C[C@H]1C(=O)N2` [Compound 104, (2R,6S,13aS,14aR,16aS,Z)-6-(tert-butoxycarbonylamino)-14a-(methoxycarbamoyl)-5,16-dioxo-1,2,3,5,6,7,8,9,10,11,13a,14,14a,15,16,16a-hexadecahydrocyclopropa[e]pyrrolo[1,2-a][1,4]diazacyclopentadecin-2-yl 4-fluoroisoindoline-2-carboxylate]: the IC50 in assay [1] is less than 0.1 µM. For the same compound, the EC50 in assay [2] was 1 to 10 µM.
For `CC(C)(C)OC(=O)N[C@H]1CCCCC/C=C\[C@@H]2C[C@@]2(C(=O)NS(=O)(=O)c2ccc(Cl)s2)NC(=O)[C@@H]2C[C@@H](OC(=O)N3Cc4cccc(F)c4C3)CN2C1=O` [Compound 323], in assay [2], the EC50 was less than 0.1 µM.
On the same count and under the same terms, for `CCC(C)(C)OC(=O)N[C@H]1CCCCC/C=C\[C@@H]2C[C@@]2(C(=O)NS(=O)(=O)C2CC2)NC(=O)[C@@H]2C[C@@H](OC(=O)N3Cc4cccc(F)c4C3)CN2C1=O` [Compound 438] the value was 0.1 to 1 µM.
The same measure, in the same setting: next, `CC(C)(C)ONC(=O)[C@@]12C[C@H]1/C=C\CCCCC[C@H](NC(=O)OC(C)(C)C)C(=O)N1C[C@H](OC(=O)N3Cc4cccc(F)c4C3)C[C@H]1C(=O)N2` [Compound 103, (2R,6S,13aS,14aR,16aS,Z)-14a-(tert-butoxycarbamoyl)-6-(tert-butoxycarbonylamino)-5,16-dioxo-1,2,3,5,6,7,8,9,10,11,13a,14,14a,15,16,16a-hexadecahydrocyclopropa[e]pyrrolo[1,2-a][1,4]diazacyclopentadecin-2-yl 4-fluoroisoindoline-2-carboxylate]: less than 0.1 µM; `CCC(C)(C)OC(=O)N[C@H]1CCCCC/C=C\[C@@H]2C[C@@]2(C(=O)NS(=O)(=O)C2CC2)NC(=O)[C@@H]2C[C@@H](OC(=O)N3Cc4cccc(F)c4C3)CN2C1=O` [Compound 431]: less than 0.1 µM.
`CC(C)(C)OC(=O)N[C@H]1CCCCCCC[C@@H]2C[C@@]2(C(=O)NS(=O)(=O)Cc2cccc(C(F)(F)F)c2)NC(=O)[C@@H]2C[C@@H](OC(=O)N3Cc4cccc(F)c4C3)CN2C1=O` [Compound 618] gave an IC50 in assay [1] of less than 0.1 µM.
On to `CC(C)(C)OC(=O)N[C@H]1CCCCCCC[C@@H]2C[C@@]2(C(=O)NS(=O)(=O)c2cc(Cl)cs2)NC(=O)[C@@H]2C[C@@H](OC(=O)N3Cc4cccc(F)c4C3)CN2C1=O` [Compound 642], for which, in assay [1], the IC50 was less than 0.1 µM.
Same read-out and setting: next, `CC(C)(C)OC(=O)N[C@H]1CCCCCCC[C@@H]2C[C@@]2(C(=O)NS(=O)(=O)Cc2ccc(F)cc2)NC(=O)[C@@H]2C[C@@H](OC(=O)N3Cc4cccc(F)c4C3)CN2C1=O` [Compound 609]: less than 0.1 µM.
In assay [1], `CC(C)(C)OC(=O)N[C@H]1CCCCCCC[C@@H]2C[C@@]2(C(=O)NS(=O)(=O)c2ccc(Cl)nc2)NC(=O)[C@@H]2C[C@@H](OC(=O)N3Cc4cccc(F)c4C3)CN2C1=O` [Compound 636] had an IC50 of less than 0.1 µM.
On the same count and under the same terms, next, `CC(C)(C)OC(=O)N[C@H]1CCCCC/C=C\[C@@H]2C[C@@]2(C(=O)NS(=O)(=O)c2ccc(Cl)nc2Cl)NC(=O)[C@@H]2C[C@@H](OC(=O)N3Cc4cccc(F)c4C3)CN2C1=O` [Compound 531]: less than 0.1 µM.
The same measure, in the same setting: next, `COc1cccc(CS(=O)(=O)NC(=O)[C@@]23C[C@H]2/C=C\CCCCC[C@H](NC(=O)OC(C)(C)C)C(=O)N2C[C@H](OC(=O)N4Cc5cccc(F)c5C4)C[C@H]2C(=O)N3)c1` [Compound 516]: less than 0.1 µM.

The values are drawn from patent US20090155209A1, “NOVEL MACROCYCLIC INHIBITORS OF HEPATITIS C VIRUS REPLICATION” (priority 2007, published 2009).
